Numbered stars: 1 amine (or outer) side, 2 acyl side, 3 side chain; on linkers, the order of the positions; unused ones are H or OH. Side chains are listed from the residue outwards. Peptide text beside a SMILES is read from it. * marks the point of attachment. X1 = O=C(CCCCCCCCCCCCCCCc1nnn[nH]1)NS(=O)(=O)CCCC(=O)*; C18 diacid = O=C(O)CCCCCCCCCCCCCCCCC(=O)*; C16 diacid = O=C(O)CCCCCCCCCCCCCCC(=O)*; γGlu = O=C(O)[C@H](CCC(=O)[*:2])N[*:1]; AEEA = NCCOCCOCC(=O)O
Key:
[1] = target: T1, glucagon receptor (Homo sapiens, UniProt P47871); assay: Assay (I) Glucagon activity (cAMP biosensor, FLIPR); format: cell-based
T1 construct: expressed in transfected cells
T1 sequence (P47871 26-477): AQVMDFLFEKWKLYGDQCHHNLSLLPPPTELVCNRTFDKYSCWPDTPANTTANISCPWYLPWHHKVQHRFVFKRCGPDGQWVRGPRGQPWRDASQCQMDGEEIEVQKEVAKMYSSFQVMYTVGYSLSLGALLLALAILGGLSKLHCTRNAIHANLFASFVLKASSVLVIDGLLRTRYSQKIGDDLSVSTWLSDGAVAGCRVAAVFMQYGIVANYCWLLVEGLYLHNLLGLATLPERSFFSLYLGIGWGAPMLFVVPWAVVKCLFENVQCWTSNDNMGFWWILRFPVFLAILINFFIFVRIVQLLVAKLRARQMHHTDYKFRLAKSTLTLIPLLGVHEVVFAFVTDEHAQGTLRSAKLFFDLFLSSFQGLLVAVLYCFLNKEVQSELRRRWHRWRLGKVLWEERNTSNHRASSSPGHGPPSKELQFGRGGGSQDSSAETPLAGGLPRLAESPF

[2] = Assay (X) Chemical stability assessment by RP-UPLC; format: physicochemical; details: pH 8.15, 14 days at 37° C. vs 5° C., 333 μM

Row | SMILES | EC50 [1] [nM] | Chemical stability [Purity loss/14 days 37 C.] [2] [%]
1 | CC(C)C[C@H](NC(=O)[C@H](Cc1c[nH]c2ccccc12)NC(=O)[C@H](CCCCNC(=O)COCCOCCNC(=O)COCCOCCNC(=O)CC[C@H](NC(=O)CC[C@H](NC(=O)CC[C@H](NC(=O)CCCCCCCCCCCCCCCCC(=O)O)C(=O)O)C(=O)O)C(=O)O)NC(=O)[C@@H](NC(=O)[C@H](Cc1ccccc1)NC(=O)[C@H](CCC(=O)O)NC(=O)[C@H](CCC(N)=O)NC(=O)[C@H](C)NC(=O)[C@H](CCCNC(=N)N)NC(=O)[C@H](CCCNC(=N)N)NC(=O)[C@@H](NC(=O)[C@H](CC(=O)O)NC(=O)[C@H](CC(C)C)NC(=O)[C@H](Cc1ccc(O)cc1)NC(=O)[C@H](CCCCN)NC(=O)[C@H](CO)NC(=O)[C@@H](NC(=O)[C@H](CC(=O)O)NC(=O)[C@H](CO)NC(=O)[C@@H](NC(=O)[C@H](Cc1ccccc1)NC(=O)[C@@H](NC(=O)CNC(=O)[C@H](CCC(N)=O)NC(=O)[C@H](CO)NC(=O)[C@@H](N)Cc1c[nH]cn1)[C@@H](C)O)[C@@H](C)O)C(C)C)[C@@H](C)O)C(C)C)C(=O)N[C@@H](CC(C)C)C(=O)N[C@@H](CO)C(=O)N[C@H](C(=O)O)[C@@H](C)O [Example 62, N^ε24-[2-[2-[2-[[2-[2-[2-[[(4S)-4-carboxy-4-[[(4S)-4-carboxy-4-[[(4S)-4-carboxy-4-(17-carboxyheptadecanoylamino)butanoyl]amino]butanoyl]amino]butanoyl]amino]ethoxy]ethoxy]acetyl]amino]ethoxy]ethoxy]acetyl]-[Val10,Thr16,Glu21,Lys24,Leu27,Ser28]-Glucagon] (H-HSQGTFTSDVSKYLDTRRAQEFVK([AEEA-AEEA-γGlu-γGlu-γGlu-C18 diacid])WLLST-OH) | 0.08 | 5.6
2 | CC(C)C[C@H](NC(=O)[C@H](Cc1ccc(O)cc1)NC(=O)[C@H](CCCNC(=N)N)NC(=O)[C@H](CO)NC(=O)[C@H](Cc1ccc(O)cc1)NC(=O)[C@H](CC(=O)O)NC(=O)[C@H](CO)NC(=O)[C@@H](NC(=O)[C@H](Cc1ccccc1)NC(=O)[C@@H](NC(=O)CNC(=O)[C@H](CCC(N)=O)NC(=O)[C@H](CO)NC(=O)[C@@H](N)Cc1c[nH]cn1)[C@@H](C)O)[C@@H](C)O)C(=O)N[C@@H](CC(=O)O)C(=O)N[C@@H](CCCNC(=N)N)C(=O)N[C@@H](CCCNC(=N)N)C(=O)N[C@@H](CCCNC(=N)N)C(=O)N[C@@H](C)C(=O)N[C@@H](CCC(N)=O)C(=O)N[C@@H](CC(=O)O)C(=O)N[C@@H](Cc1ccccc1)C(=O)N[C@H](C(=O)N[C@@H](CCCCNC(=O)CC[C@H](NC(=O)CC[C@H](NC(=O)COCCOCCNC(=O)COCCOCCNC(=O)CC[C@H](NC(=O)CCCCCCCCCCCCCCCCC(=O)O)C(=O)O)C(=O)O)C(=O)O)C(=O)N[C@@H](Cc1c[nH]c2ccccc12)C(=O)N[C@@H](CC(C)C)C(=O)N[C@@H](CC(C)C)C(=O)N[C@@H](CO)C(=O)N[C@H](C(=O)O)[C@@H](C)O)C(C)C [Example 20, N^ε24-[(4S)-4-carboxy-4-[[(4S)-4-carboxy-4-[[2-[2-[2-[[2-[2-[2-[[(4S)-4-carboxy-4-(17-carboxyheptadecanoylamino)butanoyl]amino]ethoxy]ethoxy]acetyl]amino]ethoxy]ethoxy]acetyl]amino]butanoyl]amino]butanoyl]-[Arg^12,Arg^16,Lys^24,Leu^27,Ser^28]-Glucagon] (H-HSQGTFTSDYSRYLDRRRAQDFVK([γGlu-γGlu-AEEA-AEEA-γGlu-C18 diacid])WLLST-OH) | 0.355 | 10.4
3 | CC(C)C[C@H](NC(=O)[C@H](Cc1ccc(O)cc1)NC(=O)[C@H](CCCNC(=N)N)NC(=O)[C@H](CO)NC(=O)[C@H](Cc1ccc(O)cc1)NC(=O)[C@H](CC(=O)O)NC(=O)[C@H](CO)NC(=O)[C@@H](NC(=O)[C@H](Cc1ccccc1)NC(=O)[C@@H](NC(=O)CNC(=O)[C@H](CCC(N)=O)NC(=O)[C@H](CO)NC(=O)[C@@H](N)Cc1c[nH]cn1)[C@@H](C)O)[C@@H](C)O)C(=O)N[C@@H](CC(=O)O)C(=O)N[C@@H](C)C(=O)N[C@@H](CCCNC(=N)N)C(=O)N[C@@H](CCCNC(=N)N)C(=O)N[C@@H](C)C(=O)N[C@@H](CCC(N)=O)C(=O)N[C@@H](CC(=O)O)C(=O)N[C@@H](Cc1ccccc1)C(=O)N[C@H](C(=O)N[C@@H](CCCCNC(=O)CC[C@H](NC(=O)CC[C@H](NC(=O)CC[C@H](NC(=O)CCCCCCCCCCCCCCC(=O)O)C(=O)O)C(=O)O)C(=O)O)C(=O)N[C@@H](Cc1c[nH]c2ccccc12)C(=O)N[C@@H](CC(C)C)C(=O)N[C@@H](CC(C)C)C(=O)N[C@@H](CO)C(=O)N[C@H](C(=O)O)[C@@H](C)O)C(C)C [Example 72, N^ε24-[(4S)-4-carboxy-4-[[(4S)-4-carboxy-4-[[(4S)-4-carboxy-4-(15-carboxypentadecanoylamino)butanoyl]amino]butanoyl]amino]butanoyl]-[Arg12,Ala16,Lys24,Leu27,Ser28]-Glucagon] (H-HSQGTFTSDYSRYLDARRAQDFVK([γGlu-γGlu-γGlu-C16 diacid])WLLST-OH) | 0.016 | 6.1
4 | CC(C)C[C@H](NC(=O)[C@H](Cc1c[nH]c2ccccc12)NC(=O)[C@H](CCCCNC(=O)CC[C@H](NC(=O)CC[C@H](NC(=O)COCCOCCNC(=O)COCCOCCNC(=O)CC[C@H](NC(=O)CCCCCCCCCCCCCCCCC(=O)O)C(=O)O)C(=O)O)C(=O)O)NC(=O)[C@@H](NC(=O)[C@H](Cc1ccccc1)NC(=O)[C@H](CC(=O)O)NC(=O)[C@H](CCC(N)=O)NC(=O)[C@H](C)NC(=O)[C@H](CCCNC(=N)N)NC(=O)[C@H](CCCNC(=N)N)NC(=O)[C@@H](NC(=O)[C@H](CC(=O)O)NC(=O)[C@H](CC(C)C)NC(=O)[C@H](Cc1ccc(O)cc1)NC(=O)[C@H](CCCNC(=N)N)NC(=O)[C@H](CO)NC(=O)[C@H](Cc1ccc(O)cc1)NC(=O)[C@H](CC(=O)O)NC(=O)[C@H](CO)NC(=O)[C@@H](NC(=O)[C@H](Cc1ccccc1)NC(=O)[C@@H](NC(=O)CNC(=O)[C@H](CCC(N)=O)NC(=O)[C@H](CO)NC(=O)[C@@H](N)Cc1c[nH]cn1)[C@@H](C)O)[C@@H](C)O)[C@@H](C)O)C(C)C)C(=O)N[C@@H](CCC(=O)O)C(=O)N[C@@H](CO)C(=O)N[C@H](C(=O)O)[C@@H](C)O [Example 44, N^ε24-[(4S)-4-carboxy-4-[[(4S)-4-carboxy-4-[[2-[2-[2-[[2-[2-[2-[[(4S)-4-carboxy-4-(17-carboxyheptadecanoylamino)butanoyl]amino]ethoxy]ethoxy]acetyl]amino]ethoxy]ethoxy]acetyl]amino]butanoyl]amino]butanoyl]-[Arg12,Thr16,Lys24,Glu27,Ser28]-Glucagon] (H-HSQGTFTSDYSRYLDTRRAQDFVK([γGlu-γGlu-AEEA-AEEA-γGlu-C18 diacid])WLEST-OH) | 0.176 | 10.5
5 | CC(C)C[C@H](NC(=O)[C@H](CC(C)C)NC(=O)[C@H](Cc1c[nH]c2ccccc12)NC(=O)[C@H](CCCCNC(=O)CC[C@H](NC(=O)CC[C@H](NC(=O)COCCOCCNC(=O)COCCOCCNC(=O)CC[C@H](NC(=O)CCCCCCCCCCCCCCC(=O)O)C(=O)O)C(=O)O)C(=O)O)NC(=O)[C@@H](NC(=O)[C@H](Cc1ccccc1)NC(=O)[C@H](CC(=O)O)NC(=O)[C@H](CCC(N)=O)NC(=O)[C@H](C)NC(=O)[C@H](CCCNC(=N)N)NC(=O)[C@H](CCCNC(=N)N)NC(=O)[C@H](CC(C)C)NC(=O)[C@H](CC(=O)O)NC(=O)[C@H](CC(C)C)NC(=O)[C@H](Cc1ccc(O)cc1)NC(=O)[C@H](CCCNC(=N)N)NC(=O)[C@H](CO)NC(=O)[C@H](Cc1ccc(O)cc1)NC(=O)[C@H](CC(=O)O)NC(=O)[C@H](CO)NC(=O)[C@@H](NC(=O)[C@H](Cc1ccccc1)NC(=O)[C@@H](NC(=O)CNC(=O)[C@H](CCC(N)=O)NC(=O)[C@H](CO)NC(=O)[C@@H](N)Cc1c[nH]cn1)[C@@H](C)O)[C@@H](C)O)C(C)C)C(=O)N[C@@H](C)C(=O)N[C@H](C(=O)O)[C@@H](C)O [Example 89, N^ε24-[(4S)-4-carboxy-4-[[(4S)-4-carboxy-4-[[2-[2-[2-[[2-[2-[2-[[(4S)-4-carboxy-4-(15-carboxypentadecanoylamino)butanoyl]amino]ethoxy]ethoxy]acetyl]amino]ethoxy]ethoxy]acetyl]amino]butanoyl]amino]butanoyl]-[Arg12,Leu16,Lys24,Leu27,Ala28]-Glucagon] (H-HSQGTFTSDYSRYLDLRRAQDFVK([γGlu-γGlu-AEEA-AEEA-γGlu-C16 diacid])WLLAT-OH) | 0.064 | 6.8
6 | CC(C)C[C@H](NC(=O)[C@H](Cc1ccc(O)cc1)NC(=O)[C@H](CCCCN)NC(=O)[C@H](CO)NC(=O)[C@H](Cc1ccc(O)cc1)NC(=O)[C@H](CC(=O)O)NC(=O)[C@H](CO)NC(=O)[C@@H](NC(=O)[C@H](Cc1ccccc1)NC(=O)[C@@H](NC(=O)CNC(=O)[C@H](CCC(N)=O)NC(=O)[C@H](CO)NC(=O)[C@@H](N)Cc1c[nH]cn1)[C@@H](C)O)[C@@H](C)O)C(=O)N[C@@H](CCC(=O)O)C(=O)N[C@@H](CO)C(=O)N[C@@H](CCCNC(=N)N)C(=O)N[C@@H](CCCNC(=N)N)C(=O)N[C@@H](C)C(=O)N[C@@H](CCC(N)=O)C(=O)N[C@@H](CC(=O)O)C(=O)N[C@@H](Cc1ccccc1)C(=O)N[C@H](C(=O)N[C@@H](CCCCNC(=O)CC[C@H](NC(=O)CC[C@H](NC(=O)COCCOCCNC(=O)CCCS(=O)(=O)NC(=O)CCCCCCCCCCCCCCCc1nnn[nH]1)C(=O)O)C(=O)O)C(=O)N[C@@H](Cc1c[nH]c2ccccc12)C(=O)N[C@@H](CC(C)C)C(=O)N[C@@H](CC(C)C)C(=O)N[C@@H](CO)C(=O)N[C@H](C(=O)O)[C@@H](C)O)C(C)C [Example 66, N^ε24-[(4S)-4-carboxy-4-[[(4S)-4-carboxy-4-[[2-[2-[2-[4-[16-(1H-tetrazol-5-yl)hexadecanoylsulfarnoyl]butanoylamino]ethoxy]ethoxy]acetyl]amino]butanoyl]amino]butanoyl][Glu15,Lys24,Leu27,Ser28]-Glucagon] (H-HSQGTFTSDYSKYLESRRAQDFVK([γGlu-γGlu-AEEA-X1])WLLST-OH; N-terminus and C-terminus assumed) | 0.395 | 8.3
